Test results: patent publication US6835382B2, “Ii peptide therapeutics to enhance antigen presentation” (University of Massachusetts, priority 1996, dated 2004)
Non-standard residues stand in square brackets, D forms with d. hArg = N=C(N)NCCCC[C@H](N)C(=O)O

Test system: murine E^k MHC class II allele
Assay: antigenic peptide prepulse assay, E^k allele (fixed APC prepulsed with PGCC81-104)
Format: cell-based
Settings: for Activity in antigenic peptide prepulse assay, E^k (baseline = 1): Table 23, as printed: antigenic peptide prepulse 64 μM, AE peptide 1:8 μM; for Activity in antigenic peptide prepulse assay, E^k (baseline = 1.0): prepulse 1.25 μM antigenic peptide
Procedure: In a second type of assay, the “peptide prepulse assay”, the antigenic peptide is incubated with paraformaldehyde-fixed APC for 6 h. The APC are washed and incubated for 24 h with the AE101 series homolog and the T cell hybridoma specific for the antigenic peptide. After that incubation, an aliquot of the culture supernatant is transferred to a second culture to measure the relative degree of T hybridoma stimulation, as reflected in the effect of released interleukins on the growth of an interleukin-dependent, indicator cell line, as described above.
The two above described assays measure different aspects of the molecular mechanism of the AE101 series of peptides. In the “simultaneous assay”, AE101 series peptides are thought to induce the release of endogenously bound peptides and to permit the binding of the second, specific antigenic peptide which is relatively abundant in the culture fluid. The AE101 series peptides enhance antigenic peptide-specific T cell responses in simultaneous assays. In the “peptide prepulse” assay, the specific antigenic peptide becomes bound to MHC class II molecules on the surface of the fixed APC during the 6 h prepulse incubation. The effect of the AE101 series homologs is then thought to release that antigenic peptide, resulting in an apparent suppression of the immune response.
The AE101 series peptides are thought to contact the MHC class II molecules at a discrete site outside the antigenic peptide-binding groove. AE101 peptide binding to this “Ii-KEY” site is thought to induce a conformational change in the MHC class II molecules accelerating the dissociation of previously bound antigenic peptide. […] The AE101 series peptides thus inhibit antigenic peptide-specific T cell responses in the “peptide prepulse” assays.
Antigenic peptide-specific T cell activation was measured by the following procedure. Mitomycin C-treated A20 cells (A^dE^d) or CH27 cells APC (A^kE^k) were generated by incubating 5×10^6 cells/mL for 20 min at 37° C. with 0.025 mg/mL of mitomycin C (Sigma) in Dulbecco's Modified Eaglel's Medium (DMEM)/10 mM N-2(hydroxyethylpiperazine-N″[2-ethanesulfonic acid] (HEPES), followed by two washes with four volumes of DMEM-5% fetal calf serum (FCS), 10 mM HEPES. Fixed APC were generated by treating 1×10^6 cells/mL for 5 min with 0.5% paraformaldehyde in PBS (pH 7.2), followed by two washes with four volumes of DMEM-10% FCS, 10 mM HEPES. T cell hybridomas were irradiated 2200 rads before each assay.
The “peptide prepulse assay” was carried out under essentially the same conditions as described for the “simultaneous assay” with the following modifications. Fixed APC were first incubated for 6 h at 1×10^6 cells/mL in complete DMEM-5% FCS in 24-well microculture plates (1 mL/well) with antigenic peptide, followed by four washes with 10 volumes of DMEM-5% FCS. The cells were then exposed to varying concentrations of AE101 series peptide (64 μM, 16 μM, 4 μM, and 1 μM) for 24 h in the presence of the T cell hybridoma specific to the antigenic peptide. Interleukin release from these cultures was measured by proliferation of HT-2 cells to interleukins in supernatants transferred from the primary culture. Generally, a single dose of 64 μM of each AE101 series peptide was used. The baseline T cell response was measured by culturing T hybridoma cells with the antigenic peptide-prepulsed APC in the absence of AE101 series peptides.
Table 19: Activities of C-terminal truncation analogs of AE101 in an antigenic peptide prepulse assay. […] Paraformaldehyde-treated APC (fixed APC) expressing MHC class II molecules were incubated with antigenic peptide for 6 h (HEL106-116 for E^d and PGCC81-104 for E^k). After this incubation, the prepulsed APC were washed and cultured with T hybridoma cells and AE101 series peptides. The antigenic peptide concentration during the prepulse was 12 μM for Ed and 20 μM for E^k. The AE101 series peptide concentrations were 64 μM for E^d and 16 μM for E^k. […]

[1] = Table 24, AE peptide 64 μM, prepulse 0.625 μM antigenic peptide, supernatant 1:8
[2] = Table 25, AE peptide 64 μM, prepulse 2.5 μM antigenic peptide, supernatant 1:10
[3] = Table 22, AE peptide 16 μM, prepulse 20 μM antigenic peptide, supernatant 1:2
[4] = Table 26, AE peptide 64 μM, supernatant 1:8

Substance: Ac- (mL) RMKLPK-NH2 [AE174]
- Activity in antigenic peptide prepulse assay, E^k (baseline = 1) (supernatant 1:2): 0.81
- Activity in antigenic peptide prepulse assay, E^k (baseline = 1.00) [1]: 0.81

Substance: Ac-ARMKLPKSAK-NH2 [AE120]
- Activity in antigenic peptide prepulse assay, E^k (baseline = 1.00) [2]: 0.62

Substance: Ac-ARMKNPK-NH2 [AE345]
- Activity in antigenic peptide prepulse assay, E^k (baseline = 1.00) [2]: 0.86

Substance: Ac-ARNKLPK-NH2 [AE344]
- Activity in antigenic peptide prepulse assay, E^k (baseline = 1.00) [2]: 0.76

Substance: Ac-ARNKNPF-NH2 [AE347]
- Activity in antigenic peptide prepulse assay, E^k (baseline = 1.00) [2]: 1.10

Substance: Ac-ARNKNPK-NH2 [AE346]
- Activity in antigenic peptide prepulse assay, E^k (baseline = 1.00) [2]: 0.77

Substance: Ac-L r MKLPK-NH2 [AE161]
- Activity in antigenic peptide prepulse assay, E^k (baseline = 1.00) [3]: 0.85

Substance: Ac-LR (mL) KLPK-NH2 [AE302]
- Activity in antigenic peptide prepulse assay, E^k (baseline = 1.00) [1]: 0.85

Substance: Ac-LR (mL) KYPK-NH2 [AE303]
- Activity in antigenic peptide prepulse assay, E^k (baseline = 1.00) [1]: 1.00

Substance: Ac-LR (mL) KYPk-NH2 [AE305]
- Activity in antigenic peptide prepulse assay, E^k (baseline = 1.00) [1]: 0.91

Substance: Ac-LR (mL) KyPK-NH2 [AE304]
- Activity in antigenic peptide prepulse assay, E^k (baseline = 1.00) [1]: 0.76

Substance: Ac-LR (mL) KyPk-NH2 [AE306]
- Activity in antigenic peptide prepulse assay, E^k (baseline = 1.00) [1]: 1.00

Substance: Ac-LR HArg KLPK-NH2 [AE197]
- Activity in antigenic peptide prepulse assay, E^k (baseline = 1.0) [4]: 0.96

Substance: Ac-LR L KLPK-NH2 (Ac-LRLKLPK-NH2; not fully specified; printed as Ac-LR L KLPK-NH2) [AE206]
- Activity in antigenic peptide prepulse assay, E^k (baseline = 1.00) [1]: 1.00
- Activity in antigenic peptide prepulse assay, E^k (baseline = 1.00) [2]: 0.68
- Activity in antigenic peptide prepulse assay, E^k (baseline = 1.0) [4]: 0.96

Substance: Ac-LR N KLPK-NH2 (Ac-LRNKLPK-NH2) [AE202]
- Activity in antigenic peptide prepulse assay, E^k (baseline = 1.00) [2]: 0.84

Substance: Ac-LR m KLPK-NH2 [AE162]
- Activity in antigenic peptide prepulse assay, E^k (baseline = 1.00) [3]: 0.61

Substance: Ac-LRLK HArg PK-NH2 [AE341]
- Activity in antigenic peptide prepulse assay, E^k (baseline = 1.00) [2]: 1.10

Substance: Ac-LRLKWPK-NH2 [AE309]
- Activity in antigenic peptide prepulse assay, E^k (baseline = 1.00) [1]: 0.81
- Activity in antigenic peptide prepulse assay, E^k (baseline = 1.00) [2]: 0.93
- Activity in antigenic peptide prepulse assay, E^k (baseline = 1.0) [4]: 0.98

Substance: Ac-LRLKYPK-NH2 [AE301]
- Activity in antigenic peptide prepulse assay, E^k (baseline = 1.00) [1]: 0.80
- Activity in antigenic peptide prepulse assay, E^k (baseline = 1.00) [2]: 0.86
- Activity in antigenic peptide prepulse assay, E^k (baseline = 1.0) [4]: 0.99

Substance: Ac-LRLKYPk-NH2 [AE307]
- Activity in antigenic peptide prepulse assay, E^k (baseline = 1.00) [1]: 1.10

Substance: Ac-LRLKyPK-NH2 [AE308]
- Activity in antigenic peptide prepulse assay, E^k (baseline = 1.00) [1]: 0.63

Substance: Ac-LRM M LPK-NH2 (Ac-LRMMLPK-NH2) [AE220]
- Activity in antigenic peptide prepulse assay, E^k (baseline = 1.0) [4]: 0.92

Substance: Ac-LRM k LPK-NH2 [AE163]
- Activity in antigenic peptide prepulse assay, E^k (baseline = 1.00) [3]: 0.99

Substance: Ac-LRMK (mL) PK-NH2 [AE175]
- Activity in antigenic peptide prepulse assay, E^k (baseline = 1) (supernatant 1:2): 0.87
- Activity in antigenic peptide prepulse assay, E^k (baseline = 1.00) [1]: 0.87

Substance: Ac-LRMK HArg PK-NH2 (Ac-LRMK[hArg]PK-NH2; SMILES CSCC[C@H](NC(=O)[C@H](CCCNC(=N)N)NC(=O)[C@H](CC(C)C)NC(C)=O)C(=O)N[C@@H](CCCCN)C(=O)N[C@@H](CCCCNC(=N)N)C(=O)N1CCC[C@H]1C(=O)N[C@@H](CCCCN)C(N)=O) [AE227]
- Activity in antigenic peptide prepulse assay, E^k (baseline = 1.00) [2]: 0.87

Substance: Ac-LRMK N PK-NH2 (Ac-LRMKNPK-NH2) [AE232]
- Activity in antigenic peptide prepulse assay, E^k (baseline = 1.00) [2]: 0.92

Substance: Ac-LRMK Y PK-NH2 (Ac-LRMKYPK-NH2; not fully specified; printed as Ac-LRMK Y PK-NH2) [AE235]
- Activity in antigenic peptide prepulse assay, E^k (baseline = 1.00) [1]: 0.80
- Activity in antigenic peptide prepulse assay, E^k (baseline = 1.00) [2]: 0.76
- Activity in antigenic peptide prepulse assay, E^k (baseline = 1.0) [4]: 0.60
- T cell response relative to baseline without AE peptide (None = 1.0), E^k (Table 27, antigenic peptide prepulse 1.25 μM, AE101 series peptide 64 μM, HT-2 supernatant dilution 1:8): 0.83
- Activity in antigenic peptide prepulse assay, E^k (baseline = 1.0) (Table 28, AE peptide 64 μM, supernatant 1:4): 0.80

Substance: Ac-LRMK l PK-NH2 [AE164]
- Activity in antigenic peptide prepulse assay, E^k (baseline = 1.00) [3]: 0.21
- Activity in antigenic peptide prepulse assay, E^k (baseline = 1.00) [1]: 0.67

Substance: Ac-LRMKL p K-NH2 [AE165]
- Activity in antigenic peptide prepulse assay, E^k (baseline = 1.00) [3]: 0.22

Substance: Ac-LRMKLP F-NH2 (Ac-LRMKLPF-NH2) [AE248]
- Activity in antigenic peptide prepulse assay, E^k (baseline = 1.00) [2]: 0.98

Substance: Ac-LRMKLP N-NH2 (Ac-LRMKLPN-NH2) [AE246]
- Activity in antigenic peptide prepulse assay, E^k (baseline = 1.0) [4]: 0.98
